Measurements reported in ChEMBL document CHEMBL1135256, “Benzimidazole-4,7-diones as inhibitors of protozoal (Toxoplasma gondii) purine nucleoside phosphorylase” (Bioorg Med Chem Lett, 2002).

Tests used:
[1] = system: Purine nucleoside phosphorylase (Toxoplasma gondii); experiment: Inhibition of Toxoplasma gondii purine nucleoside phosphorylase from virulent strain RH at 1 mM
[2] = molecular target: T1, Purine nucleoside phosphorylase (Homo sapiens) (UniProt P00491); experiment: Compound was evaluated for its ability to inhibit in vitro Toxoplasma gondii purine nucleoside phosphorylase from cystic strain ME 49 at a concentration of 4 mM
T1 sequence (whole entry): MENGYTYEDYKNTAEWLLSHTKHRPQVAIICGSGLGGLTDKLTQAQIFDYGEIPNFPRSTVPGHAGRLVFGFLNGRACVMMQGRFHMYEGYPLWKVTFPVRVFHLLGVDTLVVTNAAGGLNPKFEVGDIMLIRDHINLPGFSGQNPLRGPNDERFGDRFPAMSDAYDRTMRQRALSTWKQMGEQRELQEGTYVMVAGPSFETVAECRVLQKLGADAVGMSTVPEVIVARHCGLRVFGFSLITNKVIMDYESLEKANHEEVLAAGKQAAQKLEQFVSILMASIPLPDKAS

[3] = system: Purine nucleoside phosphorylase (Toxoplasma gondii); experiment: Inhibition of Toxoplasma gondii purine nucleoside phosphorylase from virulent strain RH at 4 mM
[4] = system: Purine nucleoside phosphorylase (Toxoplasma gondii); experiment: Inhibition of Toxoplasma gondii purine nucleoside phosphorylase from cystic strain ME 49 at 1 mM
[5] = system: Purine nucleoside phosphorylase (Toxoplasma gondii); experiment: Inhibition of Toxoplasma gondii purine nucleoside phosphorylase from cystic strain ME 49 at 4 mM

| Structure (SMILES) | inhibition [1] [%] | inhibition [2] [%] | inhibition [3] [%] | inhibition [4] [%] | inhibition [5] [%] |
| --- | --- | --- | --- | --- | --- |
| O=C1C=CC(=O)c2c1ncn2Cc1ccc(F)cc1 | 80 | 100 | 88 | 56 | – |
| CCCCn1cnc2c1C(=O)C=CC2=O | 45 | – | 68 | 53 | 65 |
| O=c1[nH]cnc2c1cnn2[C@@H]1O[C@H](CO)[C@@H](O)[C@H]1O | 8 | – | 28 | 11 | 22 |
| O=C1C=CC(=O)c2c1nc(Cc1ccccc1)n2Cc1ccccc1 | 65 | – | 80 | 61 | 78 |
| O=C1C=CC(=O)c2c1ncn2Cc1cccc(F)c1 | 65 | – | 100 | 60 | 100 |
| O=C1C=CC(=O)c2[nH]cnc21 | 47 | – | 68 | 52 | 71 |
| Cc1nc2c(n1Cc1ccccc1)C(=O)C=CC2=O | 54 | – | 82 | 66 | 92 |
| O=C1C=CC(=O)c2c1ncn2Cc1ccccc1F | 70 | – | 87 | 62 | 89 |
| Cn1cnc2c1C(=O)C=CC2=O | 55 | – | 85 | 31 | 82 |
